# In US6599933B2, “Tocotrienol derivative, process for producing the same and γ-CEHC delivering agent” (Kenko Corporation, priority 2000, dated 2003):
# Legend:
# [1] = racemic γ-CEHC administered to SD rat intravenously; cited from earlier work
# [2] = Hydrolyzability test in rat liver microsome solution; format: in vitro ADME
# Method: (§1) d-α-tocotrienol N,N-dimethylaminoacetate hydrochloride (Example 5:hereinafter, d-α-T3DMA), d-α-tocotrienol N-methylaminoacetate hydrochloride (Example 2:hereinafter, d-α-T3MA), d-γ-tocotrienol N,N-dimethylaminoacetate hydrochloride (Example 6:hereinafter, d-γ-T3DMA), d-γ-tocotrienol N-methylaminoacetate hydrochloride (Example 4:hereinafter, d-γ-T3MA), or d-γ-tocotrienolaminoacetate hydrochloride (Example 3:hereinafter, d-γ-T3AA) were added to a solution of SD rat liver microsome and rat plasma in an isotonic phosphate buffer, and d-α-tocotrienol and d-γ-tocotrienol produced in the reaction solution at 37° C. with time were measured by high performance liquid chromatography (HPLC).
# (§2) As Comparative Example, a hydrolysis test was performed on d-α-tocotrienolsuccinic acid ester (hereinafter, d-α-T3S) and d-γ-tocotrienolsuccinic acid ester (hereinafter, d-γ-T3S) similarly.
# (§3) HPLC conditions: Column was CAPCELL PAK UG120, a mobile phase was methanol-acetonitrile (5:5 v/v), a rate was 0.7 ml/min, and detection was carried out by absorbance of 283 nm and fluorescent intensity (excitation 298 nm, fluorescent 325 nm).
# (§4) Dynamic parameters of production of d-α-tocotrienol and d-γ-tocotrienol in a solution of rat liver microsome and rat plasma according to Micaelis-Menten model are shown in Tables 4 and 5.
# [3] = Hydrolyzability test in rat plasma solution; format: in vitro ADME; conditions: 37° C., production of tocotrienol, Michaelis-Menten model
# Method: as §1, §2, §3, §4
# [4] = Animal Test Example 1: kinetics in rat after intravenous administration (plasma, liver, heart, kidney); parameters: species or system SD rat; conditions: in vivo, 25 mg/kg
# Method: 1) SD male rats (weighing 260-285 g) were used while a diet was changed to crystal sugar from 16 hours before drug administration. d-α-T3DMA (Example 5), d-γ-T3DMA (Example 6), d-α-tocotrienol (hereinafter, d-α-T3), or d-γ-tocotrienol (hereinafter, d-γ-T3) was administered into left femoral vein under slight anesthesia. A solution of d-α-T3DMA or d-γ-T3DMA to be administered was used by dissolving it in distilled water containing 10% propylene glycol, and filtering with membrane filter (0.22 μm). A solution of d-α-T3 and d-γ-T3 to be administered was used by dissolving it using a nonionic surfactant HCO-60. Administration amounts were set to be tocotrienol equivalent 25 mg/kg, respectively. 0.25, 0.5, 1, 2, 4, 8 and 24 hours after administration, blood was taken under ether anesthesia, and liver, heart and kidney were taken. Plasma was rapidly separated and taken. A 1.15% potassium chloride solution was added at a 3-fold amount of each organ weight was added thereto, which was homogenated. 0.7 ml of ethanol was added to 0.2 ml of each sample, the mixture was stirred for 2 minutes, centrifuged, and the supernatant was analyzed by the aforementioned HPLC.
# [5] = Test Examples 2 and 3: S-γ-CEHC kinetics in plasma after intravenous administration to rat; format: in vivo, SD rat
# Method: A SD male rat, 7 weeks old, was used. A solution of γ-T3DMA to be administered was prepared into a d-γ-tocotrienol equivalent 25 mg/ml aqueous solution. The solution was administered intravenously into left femoram vein under slight ether anesthesia, blood was taken from external jugular vein with an injector for tuberculin treated with heparin with time, and plasma was taken after centrifugation. Plasma was stored at −80° C. till HPLC measurement. A γ-CEHC level in plasma was measured by the HPLC method which can fractionally quantitate optical isomers S-γ-CEHC and R-γ-CEHC (Hattori A., Fukushima T., Imai K., Anal. Biochem., 281, 209-215 (2000)). […] R-γ-CEHC was not detected in plasma after administration and only S-γ-CEHC was detected therein. […] Here, a S-γ-CEHC level after administration of racemic γ-CEHC is a value at racemic γ-CEHC 1 mg/kg. […] S-γ-CEHC in plasma was rapidly elevated after administration of γ-T3DMA and reached Cmax 1 hour after administration. […] Mean Retention Time (MRT) of a γ-T3DMA administered group is 6.64 hr and is an about 7-fold value as compared with MRT 1.00 hr of a racemic γ-CEHC administered group. From the foregoing, it can be understood that γ-T3DMA can enhance the S-γ-CEHC level in the living body and, further, can maintain the S-γ-CEHC level continuously for longer period of time.
# The pharmacokinetics parameter represents an average of four animals and standard deviation. A dose is γ-T3 equivalent 25 mg/kg. F(%) was obtained by the following equation: […]
# a Obtained by the Following Equation [formula]
# wherein AUCS-γ-CEHC,γ-T3DM^Plasma and AUCS-γ-CEHC,racemicγ-CEHC^Plasma means AUC of S-γ-CEHC after administration of γ-T3DMA and racemic γ-CEHC, respectively, and Dγ-T3DMA and Dracemic γ-CEHC means a dose of γ-T3DMA and racemic γ-CEHC, respectively.
# b Obtained by the Following Equation [formula]
# wherein AUCS-γ-CEHC,γ-TDMA^Plasma means AUC of S-γ-CEHC after administration of γ-TDMA, and Dγ-TDMA means a dose of γ-TDMA.
# γ-CEHC kinetics in plasma was studied by administering an aqueous γ-TDMA solution into rat's vein according to the same test procedure as those of Test Example 2. The γ-CEHC in plasma was all S-γ-CEHC and R-γ-CEHC was not detected. […] A level in plasma was rapidly elevated after administration, reached Cmax after 1 hr, and a S-γ-CEHC level was elevated clearly. […] Thus, it was shown that a level of S-γ-CEHC in the living body is efficiently elevated. Mean Retention Time (MRT) of a γ-TDMA administered group was 8.19 hr and was about 8-fold value as compared to MRT 1.00 hr of a racemic γ-CEHC administered group.
# Water-solubility test = conditions: 0.250 mmol in 5 ml distilled water, stirred at 20° C. for 24 hours, HPLC
# [6] = liver microsome, 37° C., production of tocotrienol, Michaelis-Menten model
# [7] = liver microsome, 37° C., production of tocotrienol, Michaelis-Menten model, read-out: Km
smiles,measurement,setting,value
Cc1c(O)cc2c(c1C)O[C@@](C)(CCC(=O)O)CC2 [R-γ-CEHC],biological half-life in plasma,[1],about 1 hour
Cc1c(O)cc2c(c1C)OC(C)(CCC(=O)O)CC2 (stereo not shown) [S-γ-CEHC],biological half-life in plasma,[1],≤ 2 minutes
"CC(C)=CCC/C(C)=C/CC/C(C)=C/CC[C@]1(C)CCc2c(C)c(OC(=O)CN(C)C)c(C)c(C)c2O1.Cl [d-α-T3DMA, d-α-tocotrienol N,N-dimethylaminoacetate hydrochloride]",Km,[2],5970 µM
same,Vmax/Km,[2],0.02455 min⁻¹
same,Vmax,[2]; [6],0.0001465 M/min
same,Km,[3],793 µM
same,Vmax,[3],9.187e-08 M/min
same,bioavailability of d-α-T3 in liver,[4],130%
"CNCC(=O)Oc1c(C)c(C)c2c(c1C)CC[C@@](C)(CC/C=C(\C)CC/C=C(\C)CCC=C(C)C)O2.Cl [d-α-T3MA, d-α-tocotrienol N-methylaminoacetate hydrochloride]",Km,[2],109 µM
same,Vmax/Km,[2],0.01111 min⁻¹
same,Vmax,[2]; [6],1.878e-06 M/min
same,Km,[3],1550 µM
same,Vmax,[3],5.808e-07 M/min
"CC(C)=CCC/C(C)=C/CC/C(C)=C/CC[C@]1(C)CCc2c(C)c(OC(=O)CCC(=O)O)c(C)c(C)c2O1 [d-α-T3S, d-α-tocotrienolsuccinic acid ester, reference compound]",Km,[2],30.3 µM
same,Vmax/Km,[2],0.001846 min⁻¹
same,Vmax,[2]; [6],5.588e-08 M/min
same,Km,[3],506 µM
same,Vmax,[3],4.946e-08 M/min
"CC(C)=CCC/C(C)=C/CC/C(C)=C/CC[C@]1(C)CCc2cc(OC(=O)CN)c(C)c(C)c2O1.Cl [d-γ-T3AA, d-γ-tocotrienol aminoacetate hydrochloride]",Vmax,[2]; [6],7.716e-05 M/min
same,Km,[2]; [7],1560 µM
same,Km,[3],5510 µM
same,Vmax,[3],3.594e-05 M/min
"CC(C)=CCC/C(C)=C/CC/C(C)=C/CC[C@]1(C)CCc2cc(OC(=O)CN(C)C)c(C)c(C)c2O1.Cl [d-γ-T3DMA, d-γ-tocotrienol N,N-dimethylaminoacetate hydrochloride]",Vmax,[2]; [6],0.000323 M/min
same,Km,[2]; [7],5580 µM
same,R-γ-CEHC in plasma after administration,"[5]; intravenous, HPLC separating optical isomers",not detected
same,MRT as fold of MRT of racemic γ-CEHC administered group,"[5]; intravenous, S-γ-CEHC in plasma",about 7 fold
same,Km,[3],786 µM
same,Vmax,[3],7.592e-06 M/min
"CNCC(=O)Oc1cc2c(c(C)c1C)O[C@](C)(CC/C=C(\C)CC/C=C(\C)CCC=C(C)C)CC2.Cl [d-γ-T3MA, d-γ-tocotrienol N-methylaminoacetate hydrochloride]",Vmax,[2]; [6],0.0001204 M/min
same,Km,[2]; [7],2100 µM
same,Km,[3],12700 µM
same,Vmax,[3],5.178e-05 M/min
"CC(C)=CCC/C(C)=C/CC/C(C)=C/CC[C@]1(C)CCc2cc(OC(=O)CCC(=O)O)c(C)c(C)c2O1 [d-γ-T3S, d-γ-tocotrienolsuccinic acid ester, reference compound]",Km,[2],22.1 µM
same,Vmax/Km,[2],0.03244 min⁻¹
same,Vmax,[2]; [6],7.161e-07 M/min
same,Km,[3],1050 µM
same,Vmax,[3],1.945e-06 M/min
CC(C)=CCC/C(C)=C/CC/C(C)=C/CC[C@]1(C)CCc2cc(O)c(C)c(C)c2O1 [d-γ-tocotrienol],solubility in distilled water,Water-solubility test,below detection limit of HPLC
"Cc1c(OC(=O)CN(C)C)cc2c(c1C)O[C@](C)(CCC[C@H](C)CCC[C@H](C)CCCC(C)C)CC2.Cl [γ-TDMA, d-γ-tocopheryl N,N-dimethylaminoacetate hydrochloride]",MRT as fold of MRT of racemic γ-CEHC administered group,"[5]; in vivo, iv",about 8 fold
same,R-γ-CEHC in plasma after administration,"[5]; in vivo, iv",not detected
